{"source": "patent US20250346938A1", "about": "“ATP-DEPENDENT C-TERMINAL MODIFICATION OF POLYPEPTIDES” (Wisconsin Alumni Research Foundation, priority 2024, published 2025)", "key": {"[1]": {"test_system": "M ccB", "test": "MccB-catalyzed C-terminal thioesterification / Cys ligation of TeCH-tag fusion proteins (intact protein LC-MS)", "assay_type": "biochemical, E. coli", "description": "M ccB-mediated ligation of GFP-MccA-N7G protein substrates. GFP-M ccA-N7G variant (50 μM) was incubated with 5 μM MccB, 5 mM ATP, and the appropriate concentration of cysteine or Mesna/TCEP in reaction buffer (25 mM Tris pH 8.0, 10 mM M gCl2). Reactions were incubated at room temperature for the indicated times. For labeling time course experiments, reactions were quenched with the addition of an equivalent volume of 0.6% TFA."}, "[2]": {"test_system": "M ccB", "test": "One-pot expressed protein ligation of GFP-TeCH with N-terminal Cys peptide CGAGS-azidoAla", "assay_type": "biochemical, E. coli", "conditions": "MccB, ATP, Mesna"}, "[3]": {"test_system": "LjM ccB", "sequence (as listed by the source)": "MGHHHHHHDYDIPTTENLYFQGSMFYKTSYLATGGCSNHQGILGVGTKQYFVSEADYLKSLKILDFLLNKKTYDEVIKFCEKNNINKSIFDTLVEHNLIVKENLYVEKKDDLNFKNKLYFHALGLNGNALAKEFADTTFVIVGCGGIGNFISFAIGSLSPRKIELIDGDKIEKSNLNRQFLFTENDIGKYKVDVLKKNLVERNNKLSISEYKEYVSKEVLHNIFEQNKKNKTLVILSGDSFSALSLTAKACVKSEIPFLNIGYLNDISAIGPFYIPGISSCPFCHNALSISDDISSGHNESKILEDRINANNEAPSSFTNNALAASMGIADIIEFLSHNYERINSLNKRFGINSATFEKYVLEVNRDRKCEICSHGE", "test": "C-terminal thioesterification of MccA-N7G peptides by L. johnsonii MccB (LC-MS)", "assay_type": "biochemical", "conditions": "LjMccB, ATP, Mesna, within 16 h"}, "[4]": {"molecular_target": "T1, Ubc9 (Homo sapiens, UniProt P63279)", "T1 construct": "Ubc9; Calc: 20,632 Da (M et loss); Observed: 20,632 Da, 20,810 Da (N-gluconylation); made in house; host or cells: E. coli BL21 (DE3)", "T1 sequence (P63279 with tags, fused parts or gaps)": "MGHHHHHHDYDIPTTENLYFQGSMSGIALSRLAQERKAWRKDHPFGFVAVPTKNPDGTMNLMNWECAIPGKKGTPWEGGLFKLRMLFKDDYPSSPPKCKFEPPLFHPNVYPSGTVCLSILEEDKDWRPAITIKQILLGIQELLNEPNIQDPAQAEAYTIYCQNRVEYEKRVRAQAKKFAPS", "test": "Ubc9-catalyzed lysine acylation (LACE) of GFP-LACE-tag with MccB-generated thioesters", "assay_type": "biochemical", "description": "For larger scale synthesis of MLGLRGG-Mes (HsLACE3-M es) (SEQ ID NO: 88), identical reaction conditions and reagent concentrations were used in a volume of […]. Reactions were quenched by addition of trifluoroacetic acid (TFA) to 1% final concentration and were desalted on SOLA HRP C18 solid-phase extraction columns (10 mg format, Thermo Fisher Scientific). Columns were conditioned with 100% acetonitrile ([…]) and equilibrated with 0.1% TFA (2× 1 mL). The acidified sample was then loaded onto the column. The column was washed with 0.1% TFA (2×1 mL) and eluted with 80% acetonitrile/20% water ([…]). The eluted peptide thioester was dried in a vacuum concentrator (SpeedV ac SPD 130DLX, Thermo Fisher Scientific) and dissolved in water. The recovered peptide was quantified using the Pierce Quantitative Fluorometric Peptide A ssay Kit (Thermo Fisher Scientific). Typical recovery from desalting was 50%.\nLysine acylation using conjugating enzymes (LACE) of GFP-LACE-tag using M ccB-generated thioesters. GFP-LACE-tag ([…]), U bc9 ([…]), MLGLRGG-Mes (SEQ ID NO: 88) or other C-terminal thioesters as indicated in the text ([…]) were incubated in reaction buffer (100 mM HEPES, pH 8.0, 50 mM K CI) at 30° C. for 16 h. For pH optimization, reaction buffer was either 100 mM HEPES, pH 7.6, 50 mM KCl or 100 mM HEPES, pH 8.0, 50 mM KCl. […]"}, "[5]": {"test_system": "M ccB", "test": "MccB-catalyzed native chemical ligation of MccA-N7G with Mesna and Cys-Trp", "assay_type": "biochemical, E. coli", "conditions": "both Mesna and Cys-Trp in the reaction, 4 hours", "description": "MccA-N7G thioester exchange with N-terminal Cys peptide. C-terminal thioester was prepared in reactions containing 250 μM MccA-N7G, 5 μM MccB, 5 mM ATP, and 5 mM Mesna/TCEP in reaction buffer (25 mM Tris pH 8.0, 10 mM M gCl2). A fter incubating for 16 hours at room temperature, 20 mM Cys-Trp peptide was added to each reaction and incubated for an additional 4 hours. Reactions were quenched with the addition of an equivalent volume of 0.6% TFA."}, "[6]": {"test_system": "E. coli M ccB", "test": "LC-TOF MS analysis of MccB-catalyzed AMPylation of MccA variants", "assay_type": "biochemical", "conditions": "HPLC-MS assay", "description": "LC-TOF MS analysis of M ccB reactions with synthetic peptide substrates. […] Reactions were incubated for 16 hours at room temperature and quenched with addition of an equivalent volume of 0.6% TFA. These reaction conditions were used for M ccBs from E. coli, H. pylori, L. johnsonii, and H. somni.\nLC-TOF MS analysis of M ccB-catalyzed N-AM Pylation of M ccA positional scanning peptide library. MccA variants were synthesized individually in-house (according to Solid-phase peptide synthesis) or were purchased from Peptide2.0. […] Reactions were incubated for 16 hours at room temperature and quenched with addition of an equivalent volume of 0.6% TFA. […] Percent conversion was calculated using peak areas from substrate and product EICs. Raw data are available in the Dryad repository at DOI: 10.5061/dryad.c59zw3rkb."}, "[7]": {"test_system": "E. coli M ccB", "test": "Enzyme-coupled pyrophosphate (PPi) release assay, E. coli MccB", "assay_type": "biochemical", "description": "FIG. 31. Enzyme-coupled pyrophosphate assay for detection of M ccB-catalyzed pyrophosphate release. M ccB-catalyzes release of pyrophosphate, which is converted to phosphate by inorganic pyrophosphatase (PPiase). Purine nucleoside phosphorylase (PN Pase) uses phosphate as a substrate to convert 2-amino-6-mercapto-7-methylpurine ribonucleoside (M ESG) to ribose 1-phosphate and 2-amino-6-mercapto-7-methylpurine, which absorbs at 360 nm.\nPurine nucleoside phosphorylase (PNP)/inorganic pyrophosphate (IP)-coupled kinetic assays. The kinetics of M ccB-catalyzed adenylation were characterized using an enzyme-coupled assay for detecting formation of pyrophosphate EnzCheck Pyrophosphate Assay Kit (Thermo Fisher Scientific) (FIG. 31). To screen M ccB for adenylation activity with C-terminal variants of MccA, 5 μM of the appropriate MccB variant was incubated with 0.25 mM of each M ccA variant in a reaction with 0.25 mM ATP, 5 mM M gCl2, 0.5 U/mL purine nucleoside phosphorylase (PNP), and 0.5 U/mL inorganic pyrophosphatase (IP). To screen E. coli, H. pylori, and L. johnsonii M ccB homologs for adenylation activity with MccA homologs, 5 μM of the appropriate MccB enzyme was incubated with 0.25 mM of each M ccA variant in a reaction with 0.25 mM ATP, 5 mM M gCI2, 0.5 U/mL purine nucleoside phosphorylase (PNP), and 0.5 U/mL inorganic pyrophosphatase (IP). Reactions containing HpM ccA-N7G and LjM ccA-N 7G peptides also contained 5 mM M esna and 5 mM TCEP. To collect steady-state kinetics data for individual peptide substrates, the peptide concentration was varied from 0-600 μM in a reaction with 5 μM MccB, 0.25 mM ATP, 5 mM MgCl2, 0.5 U/mL purine nucleoside phosphorylase (PNP), and 0.5 U/mL inorganic pyrophosphatase (IP). […] We therefore repeated measurements for the MccA-N7G peptide using an MccB concentration of […] and a substrate concentration range from 0-100 μM. Reactions were initiated with the addition of M ccB and absorbance at 360 nm was monitored using a Tecan Infinite M 200 plate reader. Initial rates of pyrophosphate production were calculated based on the initial rate of absorbance change and the resulting purine analog extinction coefficient (11,000 M-1 cm-1). Reactions were carried out in triplicate and data analysis was performed using GraphPad Prism 10."}, "[8]": {"molecular_target": "T2, MccA-N7G (E. coli TeCH-tag peptide MRTGNAG)", "T2 chain": "MRTGNAG"}}, "data": [{"molecule": "GFP-TeCH-tag: Cys-free GFP fused to MccA-N7G TeCH-tag (SEQ ID NO: 73)", "values": [{"measurement": "conversion to the Mesna thioester", "setting": "[1]; 5 mM Mesna, 5 mM ATP, 30 min", "result": "near-quantitative"}, {"measurement": "Cys ligation yield", "setting": "[1]; ATP (5 mM), Cys (5 mM), 1 h", "result": 99, "unit": "%"}, {"measurement": "time to complete conversion to thioester", "setting": "[1]; ATP (5 mM), Mesna (5 mM)", "result": 1, "unit": "h"}, {"measurement": "modification with azide-bearing peptide CGAGS-3-azido-Ala", "setting": "[2]", "result": "quantitatively modified"}]}, {"molecule": "MHRIM KG (MHRIMKG) [LjM ccA-N7G]", "values": [{"measurement": "conversion to C-terminal thioester, yield", "setting": "[3]", "result": "> 97", "unit": "%"}]}, {"molecule": "MLGLRGG (listed as Histophilus somni) [HsLACE3]", "values": [{"measurement": "modification of the LACE-tagged protein", "setting": "[4]; HsMccB-generated thioester after C18 spin column thiol removal", "result": 94, "unit": "%"}, {"measurement": "conversion to modified GFP-LACE", "setting": "[4]; one-pot and telescoped HsMccB/Ubc9 reactions", "result": "1-15%"}]}, {"molecule": "MRTGNAG [MccA-N7G]", "values": [{"measurement": "conversion to MccA-N7G-CW, yield", "setting": "[5]", "result": 82, "unit": "%"}, {"measurement": "formation of stably AMPylated product", "setting": "[6]", "result": "no stably A M Pylated product was observed"}, {"measurement": "stimulation of PPi formation", "setting": "[7]; MccA C-terminal variant as substrate for MccB", "result": "substantial stimulation"}, {"measurement": "Km", "setting": "[7]; initial fitting, 5 μM MccB, peptide 0-600 μM, pyrophosphate release, read-out: apparent KM", "result": 8.9, "unit": "µM"}]}, {"molecule": "E. coli MccB (protein) MGHHHHHHDYDIPTTENLYFQGSMDYILGRYVKIARYGSGGLVGGGGKEQYVEDLALWENIIKTAYCFITPSSYTAALETVNIPEKDFSNCFRFLKENFFIIPSEYNNSTENNRYSRNFLHYQSYGANPVLVQDKLKDAKVVILGCGGIGNHVSVILATSGIGEIILIDNDQIENTNLTRQVLFSENDVGKNKTEVIKRELLKRNSEISVSEIALNINDYTDLHKVPEADIWVVSADHPFNLINWVNKYCVRANQPYINAGYVNDIAVFGPLYVPGKTGCYECQKVVADLYGSEKENIDHKIKLINSRFKPATFAPVNNVAAALCAADVIKFIGKYSEPLSLNKRIGIWSDEIKIHSQNMGRSPVCSVCGNRM", "values": [{"measurement": "apparent KM, enzyme-coupled pyrophosphate release assay (steady-state kinetics)", "setting": "[8]", "result": "8.9 ± 0.9", "unit": "µM"}]}]}
